Source: patent US20050282743A1, “Molecular interactions in cells” (Arbor Vita Corporation, priority 2001, published 2005)
Ends that are not written are not given here. Peptide text beside a SMILES is read from it. * marks the point of attachment. Biotin = O=C1N[C@H]2[C@H](CS[C@H]2CCCCC(=O)*)N1

Key:
Assay in all cases: G' assay (10 uM PL peptide), results of TABLE 7 and TABLE 12
Type in all cases: binding
[1] = molecular target: T1, PDZ protein (GST-PDZ fusion) (Homo sapiens, UniProt Q9HD26); conditions: PDZ PIST, PDZ Domain 1
T1 construct: made in house; host or cells: E. coli (DH5alpha, BL21 or JM109)
In short: (§1)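 Biotin-PL peptide (N-term label), 10 uM vs GST-PDZ; protein 5 ug/ml by default. A450 nm binned: 1 = 0-1, 2 = 1-2, 3 = 2-3, 4 = 3-4, 5 = >4 on >2 repeats, 0 = no binding.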

[2] = molecular target: T2, PDZ protein (GST-PDZ fusion) (Homo sapiens, UniProt Q96JY6); conditions: PDZ LIM-Mystique, PDZ Domain 1
T2 construct: made in house; host or cells: E. coli (DH5alpha, BL21 or JM109)
T2 sequence (Q96JY6 1-352): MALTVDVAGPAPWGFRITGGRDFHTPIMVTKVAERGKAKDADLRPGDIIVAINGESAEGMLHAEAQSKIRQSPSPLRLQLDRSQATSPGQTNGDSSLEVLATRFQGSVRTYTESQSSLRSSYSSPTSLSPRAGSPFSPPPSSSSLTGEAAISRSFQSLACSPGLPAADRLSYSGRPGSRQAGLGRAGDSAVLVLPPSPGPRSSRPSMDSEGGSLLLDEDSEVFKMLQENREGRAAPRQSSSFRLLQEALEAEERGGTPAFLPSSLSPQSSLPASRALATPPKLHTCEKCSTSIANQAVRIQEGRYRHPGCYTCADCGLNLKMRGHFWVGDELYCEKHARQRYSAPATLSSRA
In short: as §1

[3] = molecular target: T3, PDZ protein (GST-PDZ fusion) (Homo sapiens, UniProt Q9C0E4); conditions: PDZ KIAA1719, PDZ Domain 5
T3 construct: made in house; host or cells: E. coli (DH5alpha, BL21 or JM109)
In short: as §1

[4] = molecular target: T4, PDZ protein (GST-PDZ fusion) (Homo sapiens, UniProt Q9Y2H9); conditions: PDZ KIAA0973, PDZ Domain 1
T4 construct: made in house; host or cells: E. coli (DH5alpha, BL21 or JM109)
In short: as §1

[5] = molecular target: T5, PDZ protein (GST-PDZ fusion) (Homo sapiens, UniProt Q9Y3R0)
T5 construct: made in house; host or cells: E. coli (DH5alpha, BL21 or JM109)
T5 sequence (Q9Y3R0 1-1128): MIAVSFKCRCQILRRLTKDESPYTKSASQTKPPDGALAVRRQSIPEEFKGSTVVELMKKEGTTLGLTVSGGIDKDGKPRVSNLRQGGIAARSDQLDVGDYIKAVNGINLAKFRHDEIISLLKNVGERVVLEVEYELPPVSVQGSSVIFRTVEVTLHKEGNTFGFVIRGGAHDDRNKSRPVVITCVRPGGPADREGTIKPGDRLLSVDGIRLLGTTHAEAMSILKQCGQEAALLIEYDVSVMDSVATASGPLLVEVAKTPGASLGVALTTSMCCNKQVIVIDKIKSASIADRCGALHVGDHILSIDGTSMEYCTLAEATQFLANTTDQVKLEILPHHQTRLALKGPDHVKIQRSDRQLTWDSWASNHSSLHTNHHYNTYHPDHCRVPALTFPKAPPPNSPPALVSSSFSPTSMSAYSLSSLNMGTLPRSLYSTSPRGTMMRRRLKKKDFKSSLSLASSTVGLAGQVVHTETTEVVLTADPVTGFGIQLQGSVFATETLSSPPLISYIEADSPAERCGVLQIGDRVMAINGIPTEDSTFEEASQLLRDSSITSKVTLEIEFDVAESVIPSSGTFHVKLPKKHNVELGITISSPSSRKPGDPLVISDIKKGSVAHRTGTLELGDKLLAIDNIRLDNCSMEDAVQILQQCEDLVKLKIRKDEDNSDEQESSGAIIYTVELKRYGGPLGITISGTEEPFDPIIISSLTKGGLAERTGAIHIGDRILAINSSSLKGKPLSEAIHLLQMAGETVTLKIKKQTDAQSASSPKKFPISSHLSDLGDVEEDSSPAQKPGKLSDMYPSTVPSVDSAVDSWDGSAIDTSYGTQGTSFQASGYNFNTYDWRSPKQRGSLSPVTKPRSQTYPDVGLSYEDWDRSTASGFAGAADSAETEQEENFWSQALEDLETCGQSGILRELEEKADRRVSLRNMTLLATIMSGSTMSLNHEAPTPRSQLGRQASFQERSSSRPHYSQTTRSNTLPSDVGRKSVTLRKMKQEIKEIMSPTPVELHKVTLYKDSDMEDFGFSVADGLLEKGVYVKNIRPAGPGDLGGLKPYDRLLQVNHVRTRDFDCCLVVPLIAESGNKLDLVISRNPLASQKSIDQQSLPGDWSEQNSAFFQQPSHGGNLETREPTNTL
In short: as §1

T4 sequence (Q9Y2H9 whole entry, the tested form may be a part): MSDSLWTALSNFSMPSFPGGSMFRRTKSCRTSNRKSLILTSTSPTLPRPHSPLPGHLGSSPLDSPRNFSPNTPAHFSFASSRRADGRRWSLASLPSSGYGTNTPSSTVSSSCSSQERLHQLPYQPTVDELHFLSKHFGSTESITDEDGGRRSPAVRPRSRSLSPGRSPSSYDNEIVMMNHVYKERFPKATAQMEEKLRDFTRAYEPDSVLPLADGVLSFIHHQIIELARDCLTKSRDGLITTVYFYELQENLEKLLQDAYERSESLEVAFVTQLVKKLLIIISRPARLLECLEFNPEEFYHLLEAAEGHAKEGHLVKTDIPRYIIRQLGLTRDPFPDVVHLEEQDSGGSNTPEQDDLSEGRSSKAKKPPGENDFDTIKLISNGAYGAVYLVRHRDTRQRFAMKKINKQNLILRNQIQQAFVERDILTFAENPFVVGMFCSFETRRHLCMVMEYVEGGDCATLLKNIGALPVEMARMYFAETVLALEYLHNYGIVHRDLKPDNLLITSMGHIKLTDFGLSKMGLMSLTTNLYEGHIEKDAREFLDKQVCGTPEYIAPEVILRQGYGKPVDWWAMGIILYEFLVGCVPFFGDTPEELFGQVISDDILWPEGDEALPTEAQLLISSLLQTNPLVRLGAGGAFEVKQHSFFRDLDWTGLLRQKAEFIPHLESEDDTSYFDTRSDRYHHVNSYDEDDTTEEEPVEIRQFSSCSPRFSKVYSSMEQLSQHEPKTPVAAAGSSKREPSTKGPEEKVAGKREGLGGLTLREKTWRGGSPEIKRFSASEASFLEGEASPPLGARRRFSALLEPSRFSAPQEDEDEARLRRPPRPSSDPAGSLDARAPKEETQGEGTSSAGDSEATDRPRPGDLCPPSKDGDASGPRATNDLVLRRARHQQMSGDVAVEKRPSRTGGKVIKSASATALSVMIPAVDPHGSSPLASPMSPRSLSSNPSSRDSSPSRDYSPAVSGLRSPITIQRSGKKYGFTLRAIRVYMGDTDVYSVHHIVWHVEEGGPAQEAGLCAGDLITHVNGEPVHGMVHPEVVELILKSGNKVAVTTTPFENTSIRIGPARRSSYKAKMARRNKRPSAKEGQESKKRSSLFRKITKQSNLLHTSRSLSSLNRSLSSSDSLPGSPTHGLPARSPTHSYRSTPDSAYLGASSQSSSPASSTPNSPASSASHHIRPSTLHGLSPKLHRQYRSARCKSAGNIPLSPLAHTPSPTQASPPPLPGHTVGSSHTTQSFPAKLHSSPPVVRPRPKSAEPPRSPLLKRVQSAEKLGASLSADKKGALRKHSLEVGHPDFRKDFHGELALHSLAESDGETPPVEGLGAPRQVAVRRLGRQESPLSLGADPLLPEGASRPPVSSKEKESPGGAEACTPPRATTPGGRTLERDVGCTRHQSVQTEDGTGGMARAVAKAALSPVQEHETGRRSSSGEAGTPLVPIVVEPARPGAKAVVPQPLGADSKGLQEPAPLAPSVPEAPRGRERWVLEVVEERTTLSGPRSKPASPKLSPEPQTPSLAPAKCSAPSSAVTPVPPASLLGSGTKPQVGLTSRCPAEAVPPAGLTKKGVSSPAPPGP
T3 sequence (Q9C0E4 whole entry, the tested form may be a part): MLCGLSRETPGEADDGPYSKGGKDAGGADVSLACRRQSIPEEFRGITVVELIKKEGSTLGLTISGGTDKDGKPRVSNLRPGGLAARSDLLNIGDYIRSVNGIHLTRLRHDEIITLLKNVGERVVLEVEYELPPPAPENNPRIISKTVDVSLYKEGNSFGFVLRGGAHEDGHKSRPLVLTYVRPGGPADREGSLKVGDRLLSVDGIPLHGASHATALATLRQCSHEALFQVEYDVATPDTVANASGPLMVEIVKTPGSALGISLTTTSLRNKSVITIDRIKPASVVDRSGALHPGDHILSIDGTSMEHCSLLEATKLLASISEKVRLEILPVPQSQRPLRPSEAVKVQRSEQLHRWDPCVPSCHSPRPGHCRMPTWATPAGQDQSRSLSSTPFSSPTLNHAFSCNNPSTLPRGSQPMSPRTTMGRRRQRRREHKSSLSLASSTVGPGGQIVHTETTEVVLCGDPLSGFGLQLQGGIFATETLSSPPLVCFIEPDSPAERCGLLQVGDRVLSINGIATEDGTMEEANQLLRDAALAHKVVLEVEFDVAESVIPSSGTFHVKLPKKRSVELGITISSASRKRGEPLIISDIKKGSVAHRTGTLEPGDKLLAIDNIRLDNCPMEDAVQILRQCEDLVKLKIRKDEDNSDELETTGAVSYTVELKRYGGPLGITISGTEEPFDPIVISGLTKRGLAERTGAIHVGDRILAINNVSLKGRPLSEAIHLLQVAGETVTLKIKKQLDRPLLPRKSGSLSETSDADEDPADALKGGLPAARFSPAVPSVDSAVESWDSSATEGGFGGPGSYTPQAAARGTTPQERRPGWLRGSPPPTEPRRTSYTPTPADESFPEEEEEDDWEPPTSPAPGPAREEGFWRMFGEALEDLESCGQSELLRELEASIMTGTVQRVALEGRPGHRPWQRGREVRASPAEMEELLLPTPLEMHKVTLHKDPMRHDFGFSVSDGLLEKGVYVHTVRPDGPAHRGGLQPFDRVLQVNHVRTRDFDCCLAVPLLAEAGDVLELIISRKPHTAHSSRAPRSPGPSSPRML

Compound	Classification [1]	Classification ([5]; PDZ GRIP1, PDZ Domain 3)	further results
CC(C)C[C@H](NC(=O)[C@H](CC(C)C)NC(=O)[C@@H](NC(=O)[C@H](CC(=O)O)NC(=O)CCCC[C@@H]1SC[C@@H]2NC(=O)N[C@@H]21)[C@@H](C)O)C(=O)N[C@@H](CC(C)C)C(=O)N[C@H](C(=O)N[C@@H](CCC(=O)O)C(=O)N[C@@H](CC(N)=O)C(=O)N[C@@H](CCC(=O)O)C(=O)NCC(=O)N[C@@H](CC(=O)O)C(=O)N[C@@H](CCCCN)C(=O)N[C@H](C(=O)N[C@@H](CCC(=O)O)C(=O)N[C@@H](CCC(=O)O)C(=O)N[C@@H](CCC(N)=O)C(=O)N[C@H](C(=O)N[C@@H](CO)C(=O)N[C@@H](Cc1ccc(O)cc1)C(=O)N[C@H](C(=O)O)C(C)C)C(C)C)[C@@H](C)O)[C@@H](C)O [5H2B_HUMAN] (Biotin-DTLLLTENEGDKTEEQVSYV-OH; C-terminus assumed)	1 (A450 nm 0-1)		
CC[C@H](C)[C@H](NC(=O)[C@H](CCCCN)NC(=O)[C@@H](NC(=O)[C@H](CO)NC(=O)[C@@H]1CCCN1C(=O)[C@H](Cc1ccccc1)NC(=O)[C@@H](NC(=O)[C@@H](NC(=O)[C@H](CCCNC(=N)N)NC(=O)[C@H](CCC(=O)O)NC(=O)[C@H](CC(C)C)NC(=O)[C@H](CC(C)C)NC(=O)[C@H](CC(C)C)NC(=O)[C@@H](NC(=O)CNC(=O)[C@@H](NC(=O)CCCC[C@@H]1SC[C@@H]2NC(=O)N[C@@H]21)C(C)C)[C@@H](C)O)C(C)C)[C@@H](C)CC)C(C)C)C(=O)N[C@@H](C)C(=O)N[C@H](C(=O)N[C@@H](CC(C)C)C(=O)N[C@H](C(=O)O)C(C)C)[C@@H](C)O [Adenovirus E4 Type9]			Classification ([1]; PL peptide 10 uM): 1 (A450 nm 0-1)
CC[C@H](C)[C@H](NC(=O)[C@H](CC(=O)O)NC(=O)[C@H](CCC(=O)O)NC(=O)[C@H](CCCNC(=N)N)NC(=O)[C@@H](NC(=O)CCCC[C@@H]1SC[C@@H]2NC(=O)N[C@@H]21)[C@@H](C)O)C(=O)N[C@@H](Cc1ccc(O)cc1)C(=O)N[C@H](C(=O)N[C@@H](CC(N)=O)C(=O)N[C@@H](Cc1ccc(O)cc1)C(=O)N1CCC[C@H]1C(=O)N[C@H](C(=O)N[C@@H](Cc1ccccc1)C(=O)N[C@@H](CO)C(=O)N[C@@H](CCCNC(=N)N)C(=O)N[C@@H](CCCNC(=N)N)C(=O)N1CCC[C@H]1C(=O)N[C@@H](CCCCN)C(=O)N[C@H](C(=O)N[C@@H](CCCNC(=N)N)C(=O)N[C@H](C(=O)O)C(C)C)[C@@H](C)O)[C@@H](C)O)C(C)C [DNAM-1] (Biotin-TREDIYVNYPTFSRRPKTRV-OH; C-terminus assumed)	4 (A450 nm 3-4)		
CSCC[C@H](NC(=O)[C@H](C)NC(=O)[C@H](CCCNC(=N)N)NC(=O)CNC(=O)[C@@H](NC(=O)[C@H](Cc1c[nH]c2ccccc12)NC(=O)[C@H](CCCNC(=N)N)NC(=O)CNC(=O)CCCC[C@@H]1SC[C@@H]2NC(=O)N[C@@H]21)[C@@H](C)O)C(=O)N[C@@H](CO)C(=O)N[C@@H](C)C(=O)N[C@@H](Cc1c[nH]c2ccccc12)C(=O)N[C@@H](CCCCN)C(=O)N1CCC[C@H]1C(=O)N[C@H](C(=O)N[C@@H](CCCNC(=N)N)C(=O)N[C@@H](CCCNC(=N)N)C(=O)N[C@@H](CCC(=O)O)C(=O)N[C@H](C(=O)N[C@@H](CCC(=O)O)C(=O)N[C@H](C(=O)O)C(C)C)[C@@H](C)O)[C@@H](C)O [HPV E6 #35 (modified)] (Biotin-GRWTGRAMSAWKPTRRETEV-OH; C-terminus assumed)	1 (A450 nm 0-1)	2 (A450 nm 1-2)	Classification [2]: 1 (A450 nm 0-1); Classification [3]: 1 (A450 nm 0-1); Classification [4]: 2 (A450 nm 1-2); Classification ([5]; PDZ GRIP1, PDZ Domain 6): 2 (A450 nm 1-2)
CC(C)C[C@H](NC(=O)[C@H](C)NC(=O)[C@@H](NC(=O)[C@@H](NC(=O)[C@H](Cc1c[nH]cn1)NC(=O)[C@H](CC(C)C)NC(=O)CNC(=O)[C@H](CCC(N)=O)NC(=O)CNC(=O)CNC(=O)[C@H](C)NC(=O)[C@H](C)NC(=O)[C@H](CCCNC(=N)N)NC(=O)[C@H](C)NC(=O)[C@H](CO)NC(=O)[C@H](CC(=O)O)NC(=O)[C@H](CC(=O)O)NC(=O)[C@H](Cc1c[nH]c2ccccc12)NC(=O)[C@H](C)NC(=O)CCCC[C@@H]1SC[C@@H]2NC(=O)N[C@@H]21)C(C)C)[C@@H](C)O)C(=O)O [LPAP] (Biotin-AWDDSARAAGGQGLHVTAL-OH; C-terminus assumed)	1 (A450 nm 0-1)	1 (A450 nm 0-1)	
CC[C@H](C)[C@H](NC(=O)[C@H](CO)NC(=O)[C@H](CCC(=O)O)NC(=O)[C@H](Cc1ccc(O)cc1)NC(=O)[C@H](CC(=O)O)NC(=O)[C@H](CC(N)=O)NC(=O)[C@H](CCC(=O)O)NC(=O)[C@H](CCCCN)NC(=O)CCCC[C@@H]1SC[C@@H]2NC(=O)N[C@@H]21)C(=O)N[C@@H](CO)C(=O)N[C@@H](CC(=O)O)C(=O)N[C@@H](CC(C)C)C(=O)N[C@@H](CCC(N)=O)C(=O)N[C@@H](CCC(N)=O)C(=O)NCC(=O)N[C@@H](CCCNC(=N)N)C(=O)N[C@@H](CC(=O)O)C(=O)N[C@H](C(=O)N[C@H](C(=O)N[C@@H](CCCNC(=N)N)C(=O)N[C@@H](CC(C)C)C(=O)O)[C@@H](C)O)[C@@H](C)CC [PAG] (Biotin-KENDYESISDLQQGRDITRL-OH; C-terminus assumed)	1 (A450 nm 0-1)		
CC[C@H](C)[C@H](NC(=O)[C@H](CCC(N)=O)NC(=O)[C@@H](NC(=O)[C@H](Cc1c[nH]cn1)NC(=O)[C@H](CCC(N)=O)NC(=O)[C@H](CC(=O)O)NC(=O)[C@H](CCC(=O)O)NC(=O)[C@H](CC(=O)O)NC(=O)[C@H](Cc1ccccc1)NC(=O)[C@@H]1CCCN1C(=O)[C@H](CCC(=O)O)NC(=O)[C@H](CC(N)=O)NC(=O)[C@H](CCC(=O)O)NC(=O)[C@@H]1CCCN1C(=O)[C@H](CC(=O)O)NC(=O)[C@H](CO)NC(=O)[C@H](CC(=O)O)NC(=O)CCCC[C@@H]1SC[C@@H]2NC(=O)N[C@@H]21)[C@@H](C)O)C(=O)N[C@H](C(=O)N[C@@H](CCCCN)C(=O)N[C@H](C(=O)O)C(C)C)[C@@H](C)O [PTEN]	1 (A450 nm 0-1)	1 (A450 nm 0-1)	
GPVPGEPAKPKTSAHHATFV (Biotin-GPVPGEPAKPKTSAHHATFV)	1 (A450 nm 0-1)		
PPATPSPRLALPAHHNATRL (Biotin-PPATPSPRLALPAHHNATRL) [Na+/Pi cotransporter 2]	1 (A450 nm 0-1)		Classification [4]: 2 (A450 nm 1-2)
